Data from BigSolDB 2.1.

C[C@@H]1O[C@@H](O[C@H]2[C@H](Oc3cc(O)c4c(c3)O[C@H](c3ccc(O)cc3)CC4=O)O[C@H](CO)[C@@H](O)[C@@H]2O)[C@H](O)[C@H](O)[C@H]1O
solubility (mole fraction)
Details	288.15 K	293.15 K	298.15 K	303.15 K	308.15 K	313.15 K	318.15 K	323.15 K	328.15 K
in ethyl acetate	0.000184	0.000248	0.00031	0.00035	0.000404	0.000458	0.000513	0.000594	0.000646
in isopropanol	1.26e-05	1.59e-05	2.1e-05	2.46e-05	2.97e-05	3.34e-05	3.75e-05	4.29e-05	4.79e-05
in methanol	0.00158	0.00168	0.00197	0.00224	0.00264	0.00291	0.00322	0.00359	0.00389
in n-butanol	4.85e-05	6.34e-05	7.46e-05	0.000105	0.000157	0.000218	0.000285	0.000345	0.000391
in n-hexane	9.97e-08	1.39e-07	1.75e-07	2.21e-07	2.63e-07	3.12e-07	3.6e-07	4.04e-07	4.55e-07

O=C1C[C@@H](c2ccc(O)cc2)Oc2cc(O)cc(O)c21
solubility (mole fraction)
Details	288.15 K	293.15 K	298.15 K	303.15 K	308.15 K	313.15 K	318.15 K	323.15 K	328.15 K
in ethyl acetate	0.00998	0.0133	0.0154	0.0171	0.0191	0.0215	0.0244	0.027	0.0293
in isopropanol	0.0101	0.0116	0.0141	0.0161	0.0185	0.0204	0.0218	0.0252	0.0264
in methanol	0.00875	0.0094	0.00991	0.0105	0.0114	0.0144	0.0173	0.0187	0.0205
in n-butanol	0.000972	0.00137	0.00175	0.00215	0.00259	0.00299	0.00344	0.00388	0.0042
in n-hexane	2.92e-06	3.7e-06	4.71e-06	5.42e-06	6.46e-06	7.17e-06	7.73e-06	8.69e-06	9.09e-06
